# Data as given in publication PMC9133015 (Nature Communications, 2022).
# Several values for one entry are separate records, joined by “and”; a condition that tells them apart may be missing. Identical values can stand only once.
# How the values were obtained:
# 22Rv1 shDYRK2 cells = test: Anti-proliferation activity assay (CCK8, 72 h); type: cell-based, human
# DU145 shDYRK2 cells = test: Anti-proliferation activity assay (CCK8, 72 h); type: cell-based, human
# ICR mice = test: Acute toxicity study; type: in vivo
# [1] = Homo sapiens, 22Rv1, read-out: inhibitory rate (%) mean
# [2] = Homo sapiens, DU-145, read-out: inhibitory rate (%) mean
smiles,measurement,setting,value
CCN1CCN(C(=O)c2ccc(Nc3ncc(F)c(-c4ccc5nc(N(C)C)sc5c4)n3)nc2)CC1 [YK-2-69],inhibitory activity on proliferation (in words),"22Rv1 shDYRK2 cells; 22Rv1 shDYRK2 cells, even at 80 μM",almost no inhibitory activity
same,inhibition at 10 µM,22Rv1 shDYRK2 cells; [1],19.7%
same,inhibition at 2.5 µM,22Rv1 shDYRK2 cells; [1],17.3%
same,inhibition at 20 µM,22Rv1 shDYRK2 cells; [1],26.3%
same,inhibition at 0.625 µM,"22Rv1 shDYRK2 cells; Homo sapiens, 22Rv1 KD, inhibitor 0.625 uM, read-out: inhibitory rate (%) mean",9.79%
same,inhibition at 1.25 µM,"22Rv1 shDYRK2 cells; Homo sapiens, 22Rv1 KD, inhibitor 1.25 uM, read-out: inhibitory rate (%) mean",14.3%
same,inhibition at 5 µM,"22Rv1 shDYRK2 cells; Homo sapiens, 22Rv1 KD, inhibitor 5 uM, read-out: inhibitory rate (%) mean",19.2%
same,inhibition at 40 µM,"22Rv1 shDYRK2 cells; Homo sapiens, 22Rv1 KD, inhibitor 40 uM, read-out: inhibitory rate (%) mean",31.8%
same,inhibition at 80 µM,"22Rv1 shDYRK2 cells; Homo sapiens, 22Rv1 KD, inhibitor 80 uM, read-out: inhibitory rate (%) mean",43.8%
same,IC50,"22Rv1 shDYRK2 cells; Homo sapiens, 22Rv1 shDYRK2 cells, read-out: IC50 antiproliferative activity",> 80 µM
same,inhibitory activity on proliferation (in words),"DU145 shDYRK2 cells; DU145 shDYRK2 cells, even at 80 μM",almost no inhibitory activity
same,inhibition at 0.625 µM,"DU145 shDYRK2 cells; Homo sapiens, DU-145, DU145 KD, inhibitor 0.625 uM, read-out: inhibitory rate (%) mean",7.98%
same,inhibition at 1.25 µM,"DU145 shDYRK2 cells; Homo sapiens, DU-145, DU145 KD, inhibitor 1.25 uM, read-out: inhibitory rate (%) mean",10.3%
same,inhibition at 5 µM,"DU145 shDYRK2 cells; Homo sapiens, DU-145, DU145 KD, inhibitor 5 uM, read-out: inhibitory rate (%) mean",13.5%
same,inhibition at 10 µM,"DU145 shDYRK2 cells; Homo sapiens, DU-145, DU145 KD, inhibitor 10 uM, read-out: inhibitory rate (%) mean",15.4%
same,inhibition at 40 µM,"DU145 shDYRK2 cells; Homo sapiens, DU-145, DU145 KD, inhibitor 40 uM, read-out: inhibitory rate (%) mean",17.2%
same,inhibition at 80 µM,"DU145 shDYRK2 cells; Homo sapiens, DU-145, DU145 KD, inhibitor 80 uM, read-out: inhibitory rate (%) mean",18.1%
same,IC50,"DU145 shDYRK2 cells; Homo sapiens, DU-145, DU145 shDYRK2 cells, read-out: IC50 antiproliferative activity",> 80 µM
same,inhibition at 2.5 µM,DU145 shDYRK2 cells; [2],11.8%
same,inhibition at 20 µM,DU145 shDYRK2 cells; [2],16%
same,"Figure S9b Heart (organ weight, individual mice)",ICR mice; 2500 mg/kg,0.094 and 0.137 and 0.125 and 0.146 and 0.118 and 0.152 and 0.105 and 0.097 and 0.092 and 0.115
same,"Figure S9b Kidney (organ weight, individual mice)",ICR mice; 2500 mg/kg,0.384 and 0.403 and 0.421 and 0.413 and 0.636 and 0.576 and 0.731 and 0.682 and 0.613
same,"Figure S9b Liver (organ weight, individual mice)",ICR mice; 2500 mg/kg,1.351 and 1.216 and 1.284 and 1.094 and 1.159 and 1.384 and 1.751 and 1.369 and 1.52 and 1.491
same,"Figure S9b Lung (organ weight, individual mice)",ICR mice; 2500 mg/kg,0.316 and 0.435 and 0.421 and 0.358 and 0.299 and 0.367 and 0.294 and 0.341 and 0.276 and 0.336
same,"Figure S9b Spleen (organ weight, individual mice)",ICR mice; 2500 mg/kg,0.176 and 0.186 and 0.205 and 0.201 and 0.214 and 0.253 and 0.196 and 0.221 and 0.206 and 0.257
same,Figure S9a body weight of individual mice,"ICR mice; 2500 mg/kg, Day 0",19.9 and 20.5 and 20.1 (2×) and 20 and 19.6 and 19.8 and 20.3 and 20.6 and 21.1
same,Figure S9a body weight of individual mice,"ICR mice; 2500 mg/kg, Day 2",20.2 (2×) and 20.8 and 20.3 (2×) and 20.4 and 19.8 and 20.6 and 20.9 and 21.5
same,Figure S9a body weight of individual mice,"ICR mice; 2500 mg/kg, Day 4",20.8 and 21.3 (2×) and 20.5 and 20.6 (2×) and 20.1 and 20.4 and 21.1 and 21.8
same,Figure S9a body weight of individual mice,"ICR mice; 2500 mg/kg, Day 6",21.3 and 21.7 and 20.6 and 20.8 and 20.2 and 20.7 and 21.5 and 21.9 and 22.2 and 20.9
same,Figure S9a body weight of individual mice,"ICR mice; 2500 mg/kg, Day 8",22.3 and 22.5 and 20.7 and 21.1 and 20.3 and 21 and 21.8 and 22.2 and 22.6 and 21.5
same,Figure S9a body weight of individual mice,"ICR mice; 2500 mg/kg, Day 10",22.9 and 23.2 and 20.9 and 21.4 and 20.5 and 21.3 and 22.2 and 22.5 and 23.4 and 21.9
same,Figure S9a body weight of individual mice,"ICR mice; 2500 mg/kg, Day 12",23.5 and 23.9 and 21.2 and 21.7 and 20.6 and 21.6 and 22.4 (2×) and 22.9 and 23.8
same,Figure S9a body weight of individual mice,"ICR mice; 2500 mg/kg, Day 14",24.2 and 24.5 and 21.4 and 22 and 20.9 and 21.8 and 22.9 (2×) and 23.4 and 24.3
same,"Figure S9b Heart (organ weight, individual mice)",ICR mice; 5000 mg/kg,0.126 and 0.135 and 0.116 and 0.143 and 0.138 and 0.106 and 0.112 and 0.096 and 0.094
same,"Figure S9b Kidney (organ weight, individual mice)",ICR mice; 5000 mg/kg,0.369 and 0.416 and 0.389 and 0.444 and 0.502 and 0.384 and 0.569 and 0.612 and 0.656 and 0.715
same,"Figure S9b Liver (organ weight, individual mice)",ICR mice; 5000 mg/kg,1.316 and 1.128 and 1.421 and 1.266 and 1.156 and 1.841 and 1.669 and 1.581 and 1.384 and 1.492
same,"Figure S9b Lung (organ weight, individual mice)",ICR mice; 5000 mg/kg,0.401 and 0.386 and 0.456 and 0.512 and 0.379 and 0.452 and 0.253 and 0.302 and 0.281 and 0.317
same,"Figure S9b Spleen (organ weight, individual mice)",ICR mice; 5000 mg/kg,0.2 and 0.186 and 0.199 and 0.214 and 0.231 and 0.25 and 0.241 and 0.267
same,Figure S9a body weight of individual mice,"ICR mice; 5000 mg/kg, Day 0",21.4 and 20.5 (3×) and 19.7 and 20.2 and 19.6 and 19.9 and 20.3 and 21.1
